Target: T1, Recombinant HIV protease (Human immunodeficiency virus type 1 group M subtype B, UniProt P04585)
T1 construct: Recombinant HIV protease
Assay: HIV protease inhibitory activity (cleavage of synthetic hepta-peptide, HPLC)
Assay type: biochemical
Conditions: for inhibition at 5 µM: read-out: HIV protease inhibitory activity (%); for inhibition at 0.05 µM: concentration 50 nM (final), 37° C., 60 min
Method: Recombinant HIV protease (Biochemistry, 250 (9), 264 (1990)) and synthetic hepta-peptide (H-Ser-Gln-Asn-Tyr-Pro-Ile-Val-OH/trifluoroacetic acid salt) were used for assay of protease activity. Peptide fragment H-Pro-Ile-Val-OH formed by cleavage between -Tyr . . . Pro of said substrate after a reaction in the presence of various concentration of tested compound at 37° C. for 60 min. was determined by reversed phase HPLC and the inhibitory rate was calculated (referred to Japanese laid-open unexamined patent, No. 170722/1993).
The concentration of tested compound represents the final concentration thereof of the reaction mixture.

Structure (SMILES)	inhibition at 5 µM [%]	inhibition at 0.05 µM [%]
CC(C)(C)NC(=O)[C@@H]1CSCN1C(=O)[C@@H](O)[C@H](Cc1ccccc1)NC(=O)c1cc(O)cc(O)c1 [Compound of example 29, (R)-N-tert-butyl-3-[(2S,3S)-2-hydroxy-3-(3,5-dihydroxybenzoyl)amino-4-phenylbutanoyl]-1,3-thiazolidine-4-carboxamide]	75.6	
CC(C)(C)NC(=O)[C@@H]1CSCN1C(=O)[C@@H](O)[C@H](Cc1ccccc1)NC(=O)c1cccc(O)c1 [Compound of example 6, (R)-N-tert-butyl-3-[(2S,3S)-2-hydroxy-3-[3-hydroxybenzoyl]amino-4-phenylbutanoyl]-1,3-thiazolidine-4-carboxamide]	76	
Cc1c(N)cccc1C(=O)N[C@@H](Cc1ccccc1)[C@H](O)C(=O)N1CSC[C@H]1C(=O)NC(C)(C)C [Compound of example 25, (R)-N-tert-butyl-3-[(2S,3S)-2-hydroxy-3-[3-amino-2-methylbenzoyl]amino-4-phenylbutanoyl]-1,3-thiazolidine-4-carboxamide]	81.3	
Cc1c(O)cccc1C(=O)N[C@@H](Cc1ccccc1)[C@H](O)C(=O)N1CSC(C)(C)[C@H]1C(=O)NCc1ccccc1Cl [Compound of example 45, (R)-N-(2-chlorobenzyl)-3-[(2S,3S)-3-(3-hydroxy-2-methylbenzoyl)amino-2-hydroxy-4-phenylbutanoyl]-5,5-dimethylthiazolidine-4-carboxamide]	> 99	94.5
Cc1cccc(C(=O)N[C@@H](Cc2ccccc2)[C@H](O)C(=O)N2CSC[C@H]2C(=O)NC(C)(C)C)c1C [Compound of example 26, (R)-N-tert-butyl-3-[(2S,3S)-2-hydroxy-3-(2,3-dimethylbenzoyl]amino-4-phenylbutanoyl]-1,3-thiazolidine-4-carboxamide]	77.9	
Cc1c(O)cccc1C(=O)N[C@@H](Cc1ccccc1)[C@H](O)C(=O)N1CSC[C@H]1C(=O)NCc1ccccc1Cl [Compound of example 42, (R)-N-(2-chlorobenzyl)-3-[(2S,3S)-3-(3-hydroxy-2-methylbenzoyl)amino-2-hydroxy-4-phenylbutanoyl]-1,3-thiazolidine-4-carboxamide]	97.4	51.2
CC(C)(C)NC(=O)[C@@H]1CSCN1C(=O)[C@@H](O)[C@H](Cc1ccccc1)NC(=O)c1ccc(O)cc1 [Compound of example 7, (R)-N-tert-butyl-3-[(2S,3S)-2-hydroxy-3-[4-hydroxybenzoyl]amino-4-phenylbutanoyl]-1,3-thiazolidine-4-carboxamide]	62.2	
CCCc1c(O)cccc1C(=O)N[C@@H](Cc1ccccc1)[C@H](O)C(=O)N1CSC[C@H]1C(=O)NC(C)(C)C [Compound of example 32, (R)-N-tert-butyl-3-[(2S,3S)-2-hydroxy-3-(3-hydroxy-2-propylbenzoyl)amino-4-phenylbutanoyl]-1,3-thiazolidine-4-carboxamide]	92	17.2
Cc1ccccc1CNC(=O)[C@H]1NC[C@@H](Cl)C1C(=O)[C@@H](O)[C@H](Cc1ccccc1)NC(=O)c1cccc(O)c1C (stereo partly drawn) [Compound of example 41, (2S,4S)-N-(2-methylbenzyl)-3-[(2S,3S)-3-(3-hydroxy-2-methylbenzoyl)amino-2-hydroxy-4-phenylbutanoyl]-4-chloropyrrolidine-2-carboxamide]	97.7	76.8
CC(C)(C)NC(=O)[C@@H]1CSCN1C(=O)[C@@H](O)[C@H](Cc1ccccc1)NC(=O)c1ccc(C(=O)O)cc1 [Compound of example 13, (R)-N-tert-butyl-3-[(2S,3S)-2-hydroxy-3-[4-carboxybenzoyl]amino-4-phenylbutanoyl]-1,3-thiazolidine-4-carboxamide]	70.4	
CC(C)(C)NC(=O)[C@@H]1CSCN1C(=O)[C@@H](O)[C@H](Cc1ccccc1)NC(=O)c1ccccc1 [Compound of example 1, (R)-N-tert-butyl-3-[(2S,3S)-2-hydroxy-3-[benzoyl]amino-4-phenylbutanoyl]-1,3-thiazolidine-4-carboxamide]	52	

— US5962640A, “Methods for preparing novel dipeptide compounds or pharmacuetically acceptable salts thereof” (Japan Energy Corporation, priority 1995, dated 1999)
